Experiments:
[1] = Amine concentration in brine #2 over amine-coated core sand, titration with 1N HCl (Example 2); assay type: physicochemical; settings: core sand in brine #2
Procedure: Helium was used as the carrier gas.
38 milligrams (mg) of N N-Dimethyl-1-Dodecanamine (hereafter referred to as “the amine”) was added to 10.210 gr of Pentane. This solution was added to 10.1845 gr of specific sand layers (Oa and Ob) obtained from the Schrader Bluff formation of the Milne Point Unit of the Alaskan North slope. The oil content of the sand was first removed using a mixture of methanol and toluene (50/50, volume/volume) as solvent washes. The solvent mixture was subsequently evaporated off the core sand to produce clean, dry, flowable core sand. This sand was mixed with the amine and pentane solution to produce a slurry. This slurry was thoroughly mixed and the pentane was evaporated off leaving the amine on the sand (hereafter referred to as sand/amine mixture). 100 ml of brine #2 (Table 3) was added to the sand/amine mixture to create the sand/amine/brine mixture. […] The fact that the amine was not detected underlined its strong binding to the sand particles. […] The data underlines the remarkable efficiency of an acid at ionizing and removing the amine from the sand.

[2] = Amine concentration in brine #2 over amine-coated core sand, titration with 10% nitric acid (Example 4); settings: titration with 10 wt % nitric acid, core sand in brine #2
Procedure: Concentration of amines, in media and water, were analyzed by gas chromatography (GC). An Agilent Model 5890 (Agilent, Wilmington, Del.), GC equipped with a […] and a split/splitless injector, a DB-FFAP column (30 meter length×0.32 millimeter (mm) depth×0.25 micrometer particle size). […] The system was calibrated using a sample of N,N-Dimethyl-1-Dodecaneamine (Aldrich). Helium was used as the carrier gas. A temperature gradient of 50 degrees Celsius (° C.) to 250° C. at 30° C. increase per minute (min) was used. Retention times (in minutes, min) for various chemicals of interest included: N,N-Dimethyl-1-Dodecaneamine (8.08 min); N,N-Dimethyl-1-Tetradecaneamine (8.85 min); N,N-Dimethyl-1-Hexadecane-amine (9.90 min); N,N-Dimethyl-1-Octadecaneamine (10.26 min) and N-Methyl,N-Benzyl)-1-Tetradecaneamine (11.40 min).
The procedure outlined in Example 2 was used to produce the sand/amine mixture except that 519 mg of the amine, 10 gr of Pentane. and 60.062 gr of sand from the Oa and Ob layers were used. 29.065 gr of this sand/amine mixture was added to 100 ml of brine #2 (Table 3) to create the sand/amine/brine mixture. […] 0.1 ml of 10 weight percent (wt %) nitric acid in water was added to this solution, and the pH and the amine concentration were measured again.

[3] = Amine concentration in brine #2 over amine-coated core sand, titration with 10% acetic acid (Example 5); settings: titration with 10 wt % acetic acid, core sand in brine #2

CCCCCCCCCCCCN(C)C [N N-Dimethyl-1-Dodecanamine]
pH of complete ionization and solubilization of the amine in the water [1]: < 6.0
pH of complete ionization and solubilization in the water of the amine [2]: < 6.7
pH of complete ionization and solubilization in the water of the amine [3]: < 6.7
